Activity calls are given as the source filed them. *1 amine or outer side, *2 acyl side, *3 side chain or, on linkers, in order; H or OH if unused. Where a SMILES comes first, the peptide text is derived from it. Bridges are numbered along the chain shown (N, C = ends). [ ]: non-standard residue; d: D form. The star is where a group is joined. X56 = CC(C)C(C)C(C(=O)[*:2])N(C)[*:1]; Picolinoyl(3-OH) = O=C(c1ncccc1O)*; NMePhg = CN[CH](C(=O)O)c1ccccc1; Hyp = O=C(O)[CH]1C[CH](O)CN1; Sar = CNCC(=O)O
Columns and labels:
[1] = NIH-3T3 fibroblast cytotoxicity, dose response, cytotoxicity control, cell-based, fluorescence, Alamar Blue, secondary assay (AID 2327); assay type: functional;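 further: NIH-3T3 mouse fibroblasts cultured with fluconazole at 8 µg/mL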
[2] = fluconazole-exposed Candida albicans growth modulators – fluorescence, retest, confirmation (AID 2467); assay type: functional, cell-based
[3] = viability of PTEN-deleted HCT116 cells – cell-based, HCT116 PTEN knockout, dose response (AID 1047); assay type: functional;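 further: HCT116 colon tumor cells with PTEN knocked out; cells exposed to compound for 60 hours before readout; potency for loss of cell viability measured by luminescence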
[4] = target: Glyceraldehyde-3-phosphate dehydrogenase (Homo sapiens, UniProt P04406)
Chain of Glyceraldehyde-3-phosphate dehydrogenase (P04406 whole entry): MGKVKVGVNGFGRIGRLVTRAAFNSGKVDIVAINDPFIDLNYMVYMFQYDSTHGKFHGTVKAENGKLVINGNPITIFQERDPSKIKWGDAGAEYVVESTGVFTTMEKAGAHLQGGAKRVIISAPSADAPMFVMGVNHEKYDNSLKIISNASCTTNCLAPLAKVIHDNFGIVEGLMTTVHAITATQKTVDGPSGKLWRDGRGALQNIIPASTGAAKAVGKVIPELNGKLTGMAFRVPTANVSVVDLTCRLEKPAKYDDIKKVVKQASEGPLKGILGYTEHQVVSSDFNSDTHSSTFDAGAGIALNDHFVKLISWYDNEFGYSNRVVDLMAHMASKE

P388/ADR = assay: cells; assay type: functional; details: Mus musculus
SN12K1 = assay: cells; assay type: functional; details: Homo sapiens
P388 = assay: cells; assay type: functional; details: Mus musculus
Cytochrome P450 2C19 = Cytochrome P450 2C19 (Homo sapiens, UniProt P33261); assay: Cytochrome panel assay with activity outcomes. Panel member name: p450-cyp2c19 Compounds with AC50 equal or less than 10 uM are considered active; assay type: functional
Chain of Cytochrome P450 2C19 (P33261 whole entry): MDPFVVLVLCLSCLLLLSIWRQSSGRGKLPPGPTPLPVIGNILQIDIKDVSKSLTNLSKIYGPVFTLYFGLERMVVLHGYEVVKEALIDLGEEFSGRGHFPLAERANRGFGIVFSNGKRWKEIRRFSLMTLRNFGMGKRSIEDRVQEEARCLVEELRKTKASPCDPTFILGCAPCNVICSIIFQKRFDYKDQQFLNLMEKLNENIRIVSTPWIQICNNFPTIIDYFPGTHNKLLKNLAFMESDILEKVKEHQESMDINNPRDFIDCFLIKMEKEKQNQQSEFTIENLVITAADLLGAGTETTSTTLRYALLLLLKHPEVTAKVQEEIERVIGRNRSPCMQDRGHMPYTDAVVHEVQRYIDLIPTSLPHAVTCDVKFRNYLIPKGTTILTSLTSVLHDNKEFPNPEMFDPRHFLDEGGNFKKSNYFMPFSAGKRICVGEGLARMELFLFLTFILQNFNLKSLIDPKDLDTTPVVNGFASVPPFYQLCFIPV

Cytochrome P450 2D6 = Cytochrome P450 2D6 (Homo sapiens, UniProt P10635);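 further: CYP2D6 member of a cytochrome P450 panel assay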
Chain of Cytochrome P450 2D6 (P10635 whole entry): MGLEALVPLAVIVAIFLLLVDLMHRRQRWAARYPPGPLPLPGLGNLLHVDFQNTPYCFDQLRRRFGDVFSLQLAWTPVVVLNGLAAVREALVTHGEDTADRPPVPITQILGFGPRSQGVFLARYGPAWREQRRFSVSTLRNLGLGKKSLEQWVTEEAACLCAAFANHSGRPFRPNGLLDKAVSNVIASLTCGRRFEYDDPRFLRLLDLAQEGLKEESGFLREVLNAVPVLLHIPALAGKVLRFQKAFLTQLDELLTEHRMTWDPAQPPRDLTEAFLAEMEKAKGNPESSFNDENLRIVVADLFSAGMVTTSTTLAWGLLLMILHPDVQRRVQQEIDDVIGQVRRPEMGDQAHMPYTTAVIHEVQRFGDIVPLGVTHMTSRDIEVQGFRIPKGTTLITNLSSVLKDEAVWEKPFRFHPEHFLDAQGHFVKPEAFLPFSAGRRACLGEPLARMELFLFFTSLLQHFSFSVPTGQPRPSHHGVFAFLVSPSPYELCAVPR

Cytochrome P450 3A4 = Cytochrome P450 3A4 (Homo sapiens, UniProt P08684);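 further: CYP3A4 tested as one member of a cytochrome P450 panel screen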
Chain of Cytochrome P450 3A4 (P08684 whole entry): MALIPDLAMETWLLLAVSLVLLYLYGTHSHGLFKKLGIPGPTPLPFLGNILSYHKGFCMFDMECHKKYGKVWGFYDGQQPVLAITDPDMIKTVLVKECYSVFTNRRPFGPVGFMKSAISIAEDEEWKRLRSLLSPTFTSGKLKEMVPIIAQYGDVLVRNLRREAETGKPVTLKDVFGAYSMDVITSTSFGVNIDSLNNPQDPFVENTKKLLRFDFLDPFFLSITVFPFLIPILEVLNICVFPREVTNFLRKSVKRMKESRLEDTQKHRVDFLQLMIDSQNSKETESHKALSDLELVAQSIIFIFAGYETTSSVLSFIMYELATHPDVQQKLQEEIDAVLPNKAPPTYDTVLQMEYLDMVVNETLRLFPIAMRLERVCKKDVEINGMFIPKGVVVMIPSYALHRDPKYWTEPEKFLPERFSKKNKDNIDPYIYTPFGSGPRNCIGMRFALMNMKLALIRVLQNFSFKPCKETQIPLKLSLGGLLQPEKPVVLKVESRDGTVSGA

cells [5] = assay type: functional, cell-based
cells [6] = assay type: functional, cell-based; remark: listed apart in the source
[7] = target: FAD-linked sulfhydryl oxidase ALR (Homo sapiens, UniProt P55789); assay: ALR-catalysed DTT oxidation blockers – biochemical, H2O2 detection, luminescence, cherry-pick, dose response (AID 493248)
Chain of FAD-linked sulfhydryl oxidase ALR (P55789 whole entry): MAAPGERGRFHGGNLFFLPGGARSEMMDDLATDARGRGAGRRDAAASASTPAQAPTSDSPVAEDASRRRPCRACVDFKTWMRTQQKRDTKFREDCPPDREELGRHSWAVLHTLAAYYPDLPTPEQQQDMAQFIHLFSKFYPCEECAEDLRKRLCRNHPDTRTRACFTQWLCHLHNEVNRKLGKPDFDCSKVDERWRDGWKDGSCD

[8] = Luminescence Cell-Based Dose Retest to Confirm Inhibitors of Cancer Stem Cells. [Related pubchem assays (depositor defined):AID2717, AID2721]; assay type: functional; details: Homo sapiens
Nonstructural protein 1 = Nonstructural protein 1 (Influenza A virus, UniProt Q194T2); assay type: functional, Influenza A virus (A/California/07/2009(H1N1))
Chain of Nonstructural protein 1 (Q194T2 whole entry): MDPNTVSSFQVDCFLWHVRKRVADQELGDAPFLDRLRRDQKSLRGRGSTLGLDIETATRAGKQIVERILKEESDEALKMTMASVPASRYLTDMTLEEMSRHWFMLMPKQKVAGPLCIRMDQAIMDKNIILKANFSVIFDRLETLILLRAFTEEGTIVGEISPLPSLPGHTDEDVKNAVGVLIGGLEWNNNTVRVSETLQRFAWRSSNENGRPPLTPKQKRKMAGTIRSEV

BJ [9] = assay: BJ-TERT fibroblast viability loss – cell-based, RAS-independent, luminescence, dose response (AID 1933); assay type: functional; details: Homo sapiens
BJ [10] = assay: cells; assay type: functional, cell-based; details: Homo sapiens
BJ [11] = assay: BJ-TERT-LT-ST fibroblast viability loss – cell-based, RAS-independent, luminescence, dose response (AID 1935); assay type: functional; details: Homo sapiens;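 further: BJ fibroblasts immortalized with TERT plus LT and ST oncogenes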
[12] = DRD fibroblast viability loss – cell-based, non-viral oncogenic, luminescence, dose response (AID 1934); assay type: functional; details: Homo sapiens
[13] = target: T1, Polyadenylate-binding protein 1 (Homo sapiens, UniProt P11940); assay: MLLE binding blockers, Cy5 peptide tracer – biochemical, fluorescence polarization, Cy5-PAM2 peptide, secondary, miRNA deadenylation inhibitor project, dose response (AID 602260); assay type: functional; details: read-out: IC50_Mean
T1 sequence (P11940 whole entry, the tested form may be a part): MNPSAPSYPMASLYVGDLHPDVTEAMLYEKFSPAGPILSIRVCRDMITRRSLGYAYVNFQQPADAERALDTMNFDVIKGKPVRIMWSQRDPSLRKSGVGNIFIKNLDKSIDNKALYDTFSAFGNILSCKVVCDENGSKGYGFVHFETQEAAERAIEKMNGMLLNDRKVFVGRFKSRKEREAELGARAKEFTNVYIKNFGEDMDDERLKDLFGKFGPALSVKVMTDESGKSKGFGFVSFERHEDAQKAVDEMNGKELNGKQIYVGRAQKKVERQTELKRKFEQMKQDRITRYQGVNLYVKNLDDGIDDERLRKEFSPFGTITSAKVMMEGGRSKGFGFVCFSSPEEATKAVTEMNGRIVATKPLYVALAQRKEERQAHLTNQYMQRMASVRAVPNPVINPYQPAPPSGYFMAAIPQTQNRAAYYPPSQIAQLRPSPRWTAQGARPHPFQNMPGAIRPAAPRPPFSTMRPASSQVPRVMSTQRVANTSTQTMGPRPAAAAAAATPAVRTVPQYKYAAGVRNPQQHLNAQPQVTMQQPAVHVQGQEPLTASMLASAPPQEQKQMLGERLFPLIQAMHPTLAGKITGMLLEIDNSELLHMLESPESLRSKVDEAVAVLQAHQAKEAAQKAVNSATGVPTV

[14] = target: T1, Polyadenylate-binding protein 1; assay: MLLE domain peptide-binding blockers, IC50 – biochemical, fluorescence polarization, FITC-PAM2 peptide, dose response (AID 602259); assay type: functional; details: read-out: IC50_Mean
[15] = viability of uninfected HEp-2 cells – cell-based, HTS, cytotoxicity control for RSV inhibitor project, dose response (AID 2410); assay type: functional; details: human respiratory syncytial virus
Cytochrome P450 2C9 = Cytochrome P450 2C9 (Homo sapiens, UniProt P11712)
Chain of Cytochrome P450 2C9 (P11712 whole entry): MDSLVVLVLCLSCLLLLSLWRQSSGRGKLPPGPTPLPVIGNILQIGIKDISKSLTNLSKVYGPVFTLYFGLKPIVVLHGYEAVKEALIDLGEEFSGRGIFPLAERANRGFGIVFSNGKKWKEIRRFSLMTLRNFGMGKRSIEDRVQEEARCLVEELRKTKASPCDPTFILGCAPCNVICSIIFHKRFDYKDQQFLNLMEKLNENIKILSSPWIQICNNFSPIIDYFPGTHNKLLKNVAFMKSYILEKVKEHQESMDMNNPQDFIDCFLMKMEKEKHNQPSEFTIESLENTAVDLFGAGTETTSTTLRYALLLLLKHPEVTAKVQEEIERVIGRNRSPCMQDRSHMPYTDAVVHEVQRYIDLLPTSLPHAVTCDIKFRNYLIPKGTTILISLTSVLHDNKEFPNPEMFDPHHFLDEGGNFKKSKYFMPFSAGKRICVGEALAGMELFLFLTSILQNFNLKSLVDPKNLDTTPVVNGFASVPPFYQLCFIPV

[16] = target: T2, Ubiquitin-conjugating enzyme E2 N (Homo sapiens, UniProt P61088); assay type: functional;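 further: Dose-response confirmation in a TR-FRET assay detecting UBC13-driven polyubiquitin chain formation, inhibition measured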
T2 sequence (P61088 whole entry): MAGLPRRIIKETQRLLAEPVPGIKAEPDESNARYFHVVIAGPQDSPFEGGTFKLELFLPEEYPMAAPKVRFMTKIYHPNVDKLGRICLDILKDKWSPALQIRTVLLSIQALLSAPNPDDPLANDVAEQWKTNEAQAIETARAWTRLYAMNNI

Large T antigen = Large T antigen (Simian virus 40, UniProt P03070); assay type: functional, Betapolyomavirus macacae;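 further: Confirmatory-stage PubChem screen for compounds that inhibit SV40 T antigen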
Chain of Large T antigen (P03070 whole entry): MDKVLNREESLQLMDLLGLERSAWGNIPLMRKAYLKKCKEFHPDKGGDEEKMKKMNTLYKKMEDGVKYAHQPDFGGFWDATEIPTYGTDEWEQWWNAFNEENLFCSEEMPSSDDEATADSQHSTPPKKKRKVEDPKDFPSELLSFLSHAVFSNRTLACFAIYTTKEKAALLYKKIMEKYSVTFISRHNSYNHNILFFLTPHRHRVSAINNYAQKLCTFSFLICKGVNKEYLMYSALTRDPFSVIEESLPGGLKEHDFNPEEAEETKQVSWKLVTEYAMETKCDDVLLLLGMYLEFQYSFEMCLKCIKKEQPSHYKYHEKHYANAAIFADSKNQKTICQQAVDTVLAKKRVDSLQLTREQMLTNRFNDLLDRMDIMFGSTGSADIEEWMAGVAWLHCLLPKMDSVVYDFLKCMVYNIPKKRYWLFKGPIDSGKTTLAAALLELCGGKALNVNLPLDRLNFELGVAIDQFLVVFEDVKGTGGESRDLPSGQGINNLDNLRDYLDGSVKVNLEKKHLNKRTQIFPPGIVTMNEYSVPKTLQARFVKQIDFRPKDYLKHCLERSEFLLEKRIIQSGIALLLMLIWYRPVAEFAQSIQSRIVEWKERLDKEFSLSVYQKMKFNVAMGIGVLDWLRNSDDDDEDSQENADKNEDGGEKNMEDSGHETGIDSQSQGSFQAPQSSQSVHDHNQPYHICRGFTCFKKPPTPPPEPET

O=C(NCCCc1ccccc1)Nc1cccc(Cl)c1
EC50 [1]: > 150 µM (inactive)
EC50 [2]: > 38 µM (not active)
EC50 [3]: 43.5 µM (active)

COc1cccc(N2CCN(C3=C(Cl)C(=O)N(c4cccc(C(F)(F)F)c4)C3=O)CC2)c1
IC50 [4]: > 50 µM (inconclusive)

CCOC(=O)C(CC(C)C)NC(=O)C(Cc1ccc(N(CCCl)CCCl)cc1)NC(C)=O (centres undefined)
GI50 (P388/ADR): 1.91 µM (inactive)
GI50 (SN12K1): 2.2 µM (inactive)
GI50 (P388): 1.93 µM (inactive)

Cc1cc2cc(C=O)c(Cl)nc2cc1C
AC50 (Cytochrome P450 2C19): 0.0708 µM (inconclusive)
AC50 (Cytochrome P450 2D6): 7.08 µM (inconclusive)
AC50 (Cytochrome P450 3A4): 10 µM (inconclusive)

O=C(c1ccccc1)c1ccc(Oc2ccc(C(=O)O)c(C(=O)O)c2)cc1
IC50 [4]: > 100 µM (not active)

NS(=O)(=O)c1ccc(CNC(=O)c2csc3c2CCCC3)cc1
EC50 (cells [5]): > 350 µM (not active)
EC50 (cells [6]): > 350 µM (not active)

CCCOc1ccc(CSC(CC(=O)O)C(=O)O)cc1 (centres undefined)
AC50 (Cytochrome P450 2C19): 0.224 µM (inconclusive)

CN(C)c1ccc(/C=N/NC(=O)c2ccn(C)n2)cc1
AC50 [7]: 25.6 µM (active)

COc1ccc(Cc2nnc(N/N=C/c3ccc(O)cc3O)nc2O)cc1OC
AC50 [8]: 8.28 µM (active)
IC50 (Nonstructural protein 1): 1.78 µM (active)

N#C/C(=C\c1ccc(O)cc1)C(N)=O
GI50 (P388/ADR): > 100 µM (inactive)
GI50 (SN12K1): > 100 µM (inactive)
GI50 (P388): > 100 µM (inactive)

NC(=O)c1cc2c3ccccc3ccn2c1-c1ccccc1
EC50 (BJ [9]): 0.305 µM (active)
EC50 (BJ [10]): 27.4 µM (inconclusive)
EC50 (BJ [11]): 5.08 µM (inconclusive)
EC50 [12]: 0.244 µM (active)
IC50 [13]: > 66 µM (inactive)
IC50 [14]: 32.2 µM (inactive)

Cc1cc(OC(=O)c2ccco2)c2c3c(c(=O)oc2c1)CCCC3
EC50 [1]: > 160 µM (inactive)
CC50 [15]: 33.1 µM (active)
EC50 [2]: 5.16 µM (active)

CN(C)c1ccc(-c2cc(NCc3cccnc3)ncn2)cc1
AC50 (Cytochrome P450 2C19): 39.8 µM (inconclusive)

COC(=O)CCCC1=CC2=CC(=O)C(C)(OC(=O)c3cccs3)C(=O)C2=CN1Cc1ccc2c(c1)OCO2 (centres undefined)
EC50 (cells [5]): > 350 µM (not active)
EC50 (cells [6]): > 350 µM (not active)

COc1nnc(-c2ccccc2)s1
IC50 [13]: > 66 µM (inactive)
IC50 [14]: > 66 µM (inactive)

CCC(NCc1cc(OC)cc(OC)c1)=C1C(=O)NC(=O)NC1=O
EC50 (cells [5]): > 350 µM (not active)
EC50 (cells [6]): > 350 µM (not active)

Cc1ccc(NC(=O)NNC(=O)c2cc3ccccc3cc2O)cc1C
EC50 [1]: > 160 µM (inactive)
EC50 [2]: > 38 µM (not active)

COc1ccc(Oc2ncc3nc(C)c(=O)n(Cc4cccs4)c3n2)cc1
AC50 (Cytochrome P450 2C19): 39.8 µM (inconclusive)
AC50 (Cytochrome P450 2D6): 25.1 µM (inconclusive)
AC50 (Cytochrome P450 2C9): 39.8 µM (inconclusive)

Cc1cc(C)cc(NC2=C(N)C(=O)c3ccccc3C2=O)c1
IC50 (Nonstructural protein 1): 37.3 µM (active)

COc1ccc(C2C3CCCC(C3=O)C(c3ccc(OC)cc3)N2N=O)cc1 (centres undefined)
GI50 (P388/ADR): 17.9 µM (inactive)
GI50 (SN12K1): 30.5 µM (inactive)
GI50 (P388): 19.9 µM (inactive)

Cc1cccc(N2C(=O)C(Cl)=C(N3CCN(C/C=C/c4ccccc4)CC3)C2=O)c1
IC50 [4]: > 50 µM (inconclusive)

CCCCC#CS(=O)(=O)C(F)(F)F
GI50 (P388/ADR): 27.7 µM (inactive)
GI50 (SN12K1): 51.9 µM (inactive)
GI50 (P388): 19.7 µM (inactive)

O=C1OCC(c2ccccc2)=C1c1ccc(S(=O)(=O)N2CCOCC2)s1
AC50 (Cytochrome P450 2C19): 22.4 µM (inconclusive)
AC50 (Cytochrome P450 2D6): 31.6 µM (inconclusive)
AC50 (Cytochrome P450 3A4): 28.2 µM (inconclusive)

Cc1cc(Cl)n2nc(C)c(-c3ccc(Cl)cc3)c2n1
EC50 [1]: > 150 µM (inactive)
CC50 [15]: 27.6 µM (active)
EC50 [2]: > 38 µM (not active)

Cc1c(Cl)c([N+](=O)[O-])nn1CC(=O)NC12CC3CC(CC(C3)C1)C2
EC50 (cells [5]): > 350 µM (not active)
EC50 (cells [6]): > 350 µM (not active)

CCc1ccc(C(=O)Nn2c(C)nc3ccccc3c2=O)cc1
IC50 [16]: > 20 µM (inactive)

CCC(C)N(C(=O)CSc1ccc(NC(C)=O)cc1)C1CCS(=O)(=O)C1 (centres undefined)
IC50 [13]: > 66 µM (inactive)
IC50 [14]: > 66 µM (inactive)

COc1cc(OC)c2c(-c3ccccc3)cc(=O)oc2c1C(CCN1CCCC(C)C1)c1ccc(N(C)C)cc1 (centres undefined)
IC50 (Nonstructural protein 1): 11.4 µM (active)

CCCSCC(P(=O)(O)O)P(=O)(O)O.NC1CCCCC1
GI50 (P388/ADR): > 100 µM (inactive)
GI50 (SN12K1): > 100 µM (inactive)
GI50 (P388): > 100 µM (inactive)

CC(=O)Nc1cccc(NC(=O)CSc2nn3c(=O)c(C)nnc3s2)c1
IC50 (Nonstructural protein 1): 9.96 µM (active)

CC1(C)CC(=O)C(/C=N/CCN2CCN(C(=S)Nc3cccc(Cl)c3)CC2)=C(O)C1
EC50 (cells [5]): > 350 µM (not active)
EC50 (cells [6]): > 350 µM (not active)

O=C(N/N=C/c1ccc(O)c(O)c1)C1CC1
IC50 (Large T antigen): 5.55 µM (active)
AC50 [7]: 0.127 µM (active)

CSCC[C@@H]1C(=O)N(C)[C@H](C(C)(C)C)N1C(=O)c1ccccc1
GI50 (SN12K1): > 100 µM (inactive)
GI50 (P388): > 100 µM (inactive)

COc1ccc2[nH]cc(/C=C(/C)c3ccncc3)c2c1
GI50 (P388/ADR): 2.99 µM (inactive)
GI50 (SN12K1): 16 µM (inactive)
GI50 (P388): 3.07 µM (inactive)

CC(SCc1cn2cc(Cl)ccc2n1)C(=O)O (centres undefined)
AC50 (Cytochrome P450 2C19): 28.2 µM (inconclusive)

CCOC(=O)c1cccc(NS(=O)(=O)c2c(C(=O)N3CCCCCC3)c(C)n(C)c2C)c1
IC50 [16]: > 20 µM (inactive)

CC1CCc2sc(-c3nnc(S)o3)cc2C1 (centres undefined)
AC50 [7]: 1.2 µM (active)

O=C(C1CCCN(S(=O)(=O)c2cccc3nonc23)C1)N1CCN(c2ccccc2Cl)CC1 (centres undefined)
IC50 (Nonstructural protein 1): > 100 µM (active)

O=C(CSc1nc[nH]n1)NCCc1ccc(Cl)cc1Cl
EC50 (cells [5]): > 350 µM (not active)
EC50 (cells [6]): 149 µM (active)

Cn1c(N)c(N2CCN(c3ccccc3)CC2)c(=O)[nH]c1=O
AC50 [7]: 3.9 µM (active)

O=C1/C(=C\c2cccnc2)SC(=S)N1C1CCS(=O)(=O)C1 (centres undefined)
EC50 (BJ [9]): 22.5 µM (active)
EC50 (BJ [10]): > 150 µM (inconclusive)
EC50 [2]: 0.479 µM (active)
EC50 (BJ [11]): > 150 µM (not active)
EC50 [12]: 20.4 µM (active)

O=C(NCCCN1CCOCC1)c1ccc2c(=O)n(Cc3cccc(Br)c3)c(=S)[nH]c2c1
IC50 [16]: > 20 µM (inactive)

Cc1nc(C#N)c(N/N=C/c2c(F)cccc2Cl)o1
AC50 [7]: 2.54 µM (active)

CC(C)CC1NC(=O)C(NC(=O)c2ncccc2O)C(C)OC(=O)C(c2ccccc2)N(C)C(=O)C(C)NC(=O)C(C(C)C(C)C)N(C)C(=O)CN(C)C(=O)C2CC(O)CN2C1=O (centres undefined) ({Picolinoyl(3-OH)}-TL[Hyp][Sar][X56]A[NMePhg]; ester 1-C; configuration not given here)
GI50 (P388/ADR): > 109 µM (inactive)
GI50 (SN12K1): 51.3 µM (inactive)
GI50 (P388): 6.21 µM (inactive)

Cc1ccc(OC(=O)COc2ccccc2C)c(-n2nc3ccccc3n2)c1
IC50 [13]: > 66 µM (inactive)
IC50 [14]: > 66 µM (inactive)

COc1cc(/C=N/NC(=O)c2cccc([N+](=O)[O-])c2)ccc1OCc1ccc(C)cc1
AC50 (Cytochrome P450 2C19): 2.51 µM (inconclusive)
AC50 (Cytochrome P450 2C9): 1.58 µM (inconclusive)

Cc1ccc(S(=O)(=O)CCc2nnc(NC(=O)c3ccccn3)s2)cc1
IC50 (Nonstructural protein 1): 10.2 µM (active)

COC1/C=C\C=C(/C)C(=O)NC2=CC(=O)C=C(C2=O)C(OC)C(C)CC(OC)C(OC)C(C)/C=C(/C)C1OC(N)=O (centres undefined)
GI50 (P388/ADR): 1.29 µM (inactive)
GI50 (SN12K1): 1.69 µM (inactive)
GI50 (P388): 0.0166 µM (active)

From ChEMBL document CHEMBL1201862, “PubChem BioAssay data set” (2004)
